Molecules are shown by their SMILES. Values after ≈ are worked out from the molar mass of the structure shown.

The test system of series [1] is KB. The series can be described thus: Cytotoxicity against human KB cells. In kind it is functional, cell-based.
Series [2] can be described thus: Oral bioavailability in C57BL/6 mouse. The format is ADME, organism-based. The settings on record: in vivo.
Series [3] concerns P388. As to the kind of experiment: Antitumor activity against mouse P388 cells xenografted in mouse assessed as increase in life span at 2.5 mg/kg, ip dosed daily for 5 days. In kind it is functional. The settings on record: route intraperitoneal.
Series [4] can be described thus: Systemic availability in ip dosed C57BL/6 mouse. The format is ADME, organism-based. The note with it: in vivo.
Series [5] concerns P388. The series can be described thus: Antitumor activity against mouse P388 cells xenografted in mouse assessed as increase in life span at 2 mg/kg, iv dosed twice daily for 5 days.
Series [6] addresses T1, Taste receptor type 2 member 31 (Homo sapiens, UniProt P59538).
T1 sequence (P59538 whole entry): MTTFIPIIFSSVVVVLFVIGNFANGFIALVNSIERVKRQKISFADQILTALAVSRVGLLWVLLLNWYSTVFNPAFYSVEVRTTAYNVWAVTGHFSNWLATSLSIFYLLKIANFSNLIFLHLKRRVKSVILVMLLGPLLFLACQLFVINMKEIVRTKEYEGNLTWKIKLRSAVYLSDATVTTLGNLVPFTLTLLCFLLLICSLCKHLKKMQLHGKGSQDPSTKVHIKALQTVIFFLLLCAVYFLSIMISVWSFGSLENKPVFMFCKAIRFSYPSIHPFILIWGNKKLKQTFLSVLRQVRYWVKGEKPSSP
As to the kind of experiment: Inhibition of human TAS2R31 receptor expressed in HEK293T cells overexpressing chimeric G-protein alpha-subunit. In kind it is cell-based, HEK-293T.

Series [7] deals with HT-29. As to the kind of experiment: Cytotoxicity against human HT-29 cells. The format is functional. The note with it: read-out: ED50 (the source's name).
The nature of series [8]: Inhibition of proteasome. The format is subcellular.

In series [1], `Oc1ccc([C@H]2c3c(O)cc4c(c3[C@@H]3c5c(O)cc6c(c5[C@H]2[C@@H]3c2ccc(O)cc2)[C@H](c2cc(O)cc(O)c2)[C@@H](c2ccc(O)cc2)O6)[C@@H](c2cc(O)cc(O)c2)[C@H](c2ccc(O)cc2)O4)cc1` [VATDIOSPYROIDOL] displayed an EC50 of 1 µg/mL (≈ 1.1 µM).
Turning to `COC(=O)[C@H]1[C@@H](O)[C@@]2(O)c3c(OC)cc(O[C@@H]4O[C@@H]([C@H](O)CO)CO[C@H]4OC)cc3O[C@@]2(c2ccc(OC)cc2)[C@@H]1c1ccccc1` [SILVESTROL], the bioavailability (as a rule, the share of a dose that reaches the circulation, judged against a reference dose that is usually intravenous) in series [2] was found to be 1.7%; in series [4] it was 100%. Moreover, the T/C (in general, the result in the treated group divided by that in the control group, in per cent) is 150% in series [3] and 129% in series [5].
With `COc1cc([C@@H]2CC(=O)c3c(O)cc(O)cc3O2)ccc1OC(=O)C(C)C`, in series [6], the IC50 (commonly the concentration at which inhibition is half-maximal) was 2 µM.
With `COc1cc2c(c(O)c1OC)C(=O)C[C@@H](c1ccc(O)cc1)O2`, the IC50 in series [6] is 2.5 µM.
The molecule `COc1cc(-c2cc(=O)c3c(O)c(OC)c(O)cc3o2)ccc1O` [JACEOSIDINE] registered an IC50 in series [6] of 11.3 µM.
Regarding `CC(C)=CCc1c2c(c(O)c3c1O[C@]14C(=C[C@@H]5C[C@H]1C(C)(C)O[C@@]4(C/C=C(/C)C(=O)O)C5=O)C3=O)C=CC(C)(C)O2`, in series [7], the EC50 amounted to 0.36 µM.
Take `COc1cc(O)c2c(c1)O[C@H](c1ccc(O)cc1)CC2=O` [SAKURANETIN]: the IC50 in series [6] came to 3.6 µM.
As for `O=C1c2c(O)cc(O)cc2O[C@H](c2ccc(O)cc2)[C@H]1c1c(O)cc(O)c2c(=O)cc(-c3ccc(O)c(O)c3)oc12` [MORELLOFLAVONE], the IC50 in series [8] came to 1.3 µM.

The values are drawn from ChEMBL document CHEMBL2034892, “The relevance of higher plants in lead compound discovery programs” (J Nat Prod, 2011).
